This note sets out measurements from patent publication US20260053834A1, “COVALENT MODIFIERS OF AKT1 AND USES THEREOF” (Terremoto Biosciences, Inc., priority 2023, published 2026).

The target in one assay is T1, AKT2 (Homo sapiens, UniProt P31751).
T1 construct: expressed in transfected cells; host or cells: HEK293
The assay is described as follows: Live cell target engagement by NanoBRET competitive probe displacement, AKT2. It is filed as binding. Particulars: transfected HEK293 cells, 2 h at 37° C., read-out: AKT2 IC50: GeoMean IC50. (In general: Bioluminescence resonance energy transfer reports proximity on the nanometre scale.)

A further assay deals with T2, AKT1 E17K (Homo sapiens, UniProt P31749, E17K).
T2 construct: expressed in transfected cells; host or cells: HEK293
Kind of assay: Live cell target engagement by NanoBRET competitive probe displacement, AKT1 E17K. It is filed as binding. Particulars: transfected HEK293 cells, 2 h at 37° C., read-out: AKT1 E17K IC50: GeoMean IC50.

Another assay deals with T3, AKT1 WT (Homo sapiens, UniProt P31749).
T3 construct: expressed in transfected cells; host or cells: HEK293
Kind of assay: Live cell target engagement by NanoBRET competitive probe displacement, AKT1 WT. It is filed as binding. To be noted: transfected HEK293 cells, 2 h at 37° C., read-out: AKT1 WT IC50: GeoMean IC50.

Assay [1] concerns LAPC4 prostate cancer cells, which express the AKT1 E17K allele. Kind of assay: Antiproliferative effects in LAPC4 cells (CellTiter Glo, 72 h). The class given is cell-based. To be noted: Homo sapiens, LAPC4, 72 h, read-out: LAPC4 proliferation IC50: GeoMean IC50. Put shortly: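 Cells grown in IMDM with 12% FBS, seeded at 1,000 cells/well and treated with compound dilutions in DMSO for 72 h. Intracellular ATP read by luminescence. IC50 from a log(inhibitor) vs. response Hill fit.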
Background: ATP-based viability assays read luminescence as a measure of living cells.

Where only a bound is given, the exact number is not on record here.

T3 sequence (P31749 whole entry): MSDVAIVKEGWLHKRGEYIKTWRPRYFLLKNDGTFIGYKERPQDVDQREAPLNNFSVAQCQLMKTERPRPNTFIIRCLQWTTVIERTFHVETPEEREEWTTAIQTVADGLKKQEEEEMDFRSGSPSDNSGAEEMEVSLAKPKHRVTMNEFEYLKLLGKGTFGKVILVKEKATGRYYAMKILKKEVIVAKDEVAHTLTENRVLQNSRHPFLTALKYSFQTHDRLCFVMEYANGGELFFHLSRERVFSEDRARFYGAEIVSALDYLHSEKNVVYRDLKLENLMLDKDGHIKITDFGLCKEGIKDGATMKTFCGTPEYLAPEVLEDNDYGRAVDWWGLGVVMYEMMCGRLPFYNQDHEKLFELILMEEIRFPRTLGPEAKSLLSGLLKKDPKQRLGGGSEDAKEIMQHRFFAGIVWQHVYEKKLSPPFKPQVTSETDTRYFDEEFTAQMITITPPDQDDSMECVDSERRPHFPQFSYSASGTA
T2 sequence (P31749 whole entry E17K): as the sequence (P31749 whole entry) above, with E17K counted along it
T1 sequence (P31751 whole entry): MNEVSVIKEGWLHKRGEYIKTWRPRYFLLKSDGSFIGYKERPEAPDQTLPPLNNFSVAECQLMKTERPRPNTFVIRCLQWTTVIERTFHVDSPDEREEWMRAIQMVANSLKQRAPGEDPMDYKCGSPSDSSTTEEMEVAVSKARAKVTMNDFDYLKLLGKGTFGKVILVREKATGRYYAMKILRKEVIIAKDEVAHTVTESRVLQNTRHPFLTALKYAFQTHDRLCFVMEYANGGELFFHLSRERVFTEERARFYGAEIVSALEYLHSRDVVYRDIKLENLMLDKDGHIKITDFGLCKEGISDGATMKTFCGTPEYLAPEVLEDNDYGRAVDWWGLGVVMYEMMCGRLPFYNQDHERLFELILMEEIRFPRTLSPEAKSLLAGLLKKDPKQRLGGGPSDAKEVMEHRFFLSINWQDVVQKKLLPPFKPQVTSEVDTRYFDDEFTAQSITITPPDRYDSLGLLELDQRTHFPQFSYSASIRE

Turning to `Nc1ncccc1-c1nc2ccc(-n3ccc(F)n3)nc2n1-c1ccc2c(c1)CC[C@@H]2NC(=O)c1cc(C=O)c(O)cc1F` [Example 135, N-[(1S)-5-[2-(2-aminopyridin-3-yl)-5-(3-fluoropyrazol-1-yl)imidazo[4,5-b]pyridin-3-yl]-2,3-dihydro-1H-inden-1-yl]-2-fluoro-5-formyl-4-hydroxybenzamide], the IC50 on AKT2 was 100 to 2000 nM; on AKT1 E17K, 10 to 100 nM; at AKT1 WT it was 10 to 100 nM; in assay [1] it was 10 to 100 nM.

For the compound `Nc1ncccc1-c1nc2ccc(-c3cccc(F)c3)nc2n1-c1ccc2c(c1)CC[C@@H]2NC(=O)c1ccc(O)c(C=O)c1` [Example 26, N-[(1S)-5-[2-(2-aminopyridin-3-yl)-5-(3-fluorophenyl)imidazo[4,5-b]pyridin-3-yl]-2,3-dihydro-1H-inden-1-yl]-3-formyl-4-hydroxybenzamide], the IC50 at AKT2 fell in the range of 100 to 2000 nM; on AKT1 E17K it was 10 to 100 nM; on AKT1 WT it was 100 to 2000 nM; in assay [1] it was 100 to 2000 nM.

Take `Nc1ncccc1-c1nc2ccc(-n3cccn3)nc2n1-c1ccc2c(c1)CC[C@@H]2NC(=O)c1cc(C=O)c(O)c2ncoc12` [Example 253, N-[(1S)-5-[2-(2-aminopyridin-3-yl)-5-(pyrazol-1-yl)imidazo[4,5-b]pyridin-3-yl]-2,3-dihydro-1H-inden-1-yl]-5-formyl-4-hydroxy-1,3-benzoxazole-7-carboxamide]: the IC50 (at AKT2; at AKT1 E17K; on AKT1 WT; in assay [1]) was 100 to 2000 nM throughout.

As to `C#Cc1ccc2nc(-c3cccnc3N)n(-c3ccc4c(c3)CC[C@@H]4NC(=O)c3ccc(O)c(C=O)c3)c2n1` [Example 50, N-[(1S)-5-[2-(2-aminopyridin-3-yl)-5-ethynylimidazo[4,5-b]pyridin-3-yl]-2,3-dihydro-1H-inden-1-yl]-3-formyl-4-hydroxybenzamide], the IC50 at AKT2 is not below 2000 nM; at AKT1 E17K, 10 to 100 nM; at AKT1 WT it was 100 to 2000 nM; in assay [1] it was 100 to 2000 nM.

With `[2H]C(=O)c1cc(C(=O)N[C@H]2CCc3cc(-n4c(-c5cccnc5N)nc5ccc(-n6ccc(F)n6)nc54)ccc32)ccc1O` [Example 190, (S)—N-(5-(2-(2-aminopyridin-3-yl)-5-(3-fluoro-1H-pyrazol-1-yl)-3H-imidazo[4,5-b]pyridin-3-yl)-2,3-dihydro-1-H-inden-1-yl)-3-(formyl-d)-4-hydroxybenzamide], the IC50 on AKT2 lay in the range of 100 to 2000 nM; on AKT1 E17K it was 10 to 100 nM; on AKT1 WT, 100 to 2000 nM; in assay [1] it was 100 to 2000 nM.

Consider `Nc1cc(O)c(C=O)cc1C(=O)N[C@H]1CCc2cc(-n3c(-c4cccnc4N)nc4ccc(-n5cccn5)nc43)ccc21` [Example 237, 2-amino-N-[(1S)-5-[2-(2-aminopyridin-3-yl)-5-(pyrazol-1-yl)imidazo[4,5-b]pyridin-3-yl]-2,3-dihydro-1H-inden-1-yl]-5-formyl-4-hydroxybenzamide], for which the IC50 on AKT2 fell in the range of 100 to 2000 nM; on AKT1 E17K it was 10 to 100 nM; at AKT1 WT, 10 to 100 nM; in assay [1], 100 to 2000 nM.

With `Nc1ncccc1-c1nc2ccc(-c3ccccn3)nc2n1-c1ccc2c(c1)CC[C@@H]2NC(=O)c1ccc(O)c(C=O)c1` [Example 25, (S)—N-(5-(2-(2-aminopyridin-3-yl)-5-(pyridin-2-yl)-3H-imidazo[4,5-b]pyridin-3-yl)-2,3-dihydro-1H-inden-1-yl)-3-formyl-4-hydroxybenzamide], the IC50 lay in the range of 100 to 2000 nM at AKT2, 10 to 100 nM on AKT1 E17K, 10 to 100 nM on AKT1 WT and 10 to 100 nM in assay [1].

Turning to `Cc1cnc(-c2ccc3nc(-c4cccnc4N)n(-c4ccc5c(c4)CC[C@@H]5NC(=O)c4ccc(O)c(C=O)c4)c3n2)s1` [Example 132, (S)—N-(5-(2-(2-aminopyridin-3-yl)-5-(5-methylthiazol-2-yl)-3H-imidazo[4,5-b]pyridin-3-yl)-2,3-dihydro-1H-inden-1-yl)-3-formyl-4-hydroxybenzamide], the IC50 was 100 to 2000 nM at AKT2, less than 10 nM at AKT1 E17K, 10 to 100 nM at AKT1 WT and 10 to 100 nM in assay [1].

Take `Nc1ncccc1-c1nc2ccc(-c3cnn(C(F)F)c3)nc2n1-c1ccc2c(c1)CC[C@@H]2NC(=O)c1ccc(O)c(C=O)c1` [Example 61, N-[(1S)-5-[2-(2-aminopyridin-3-yl)-5-[1-(difluoromethyl)pyrazol-4-yl]imidazo[4,5-b]pyridin-3-yl]-2,3-dihydro-1H-inden-1-yl]-3-formyl-4-hydroxybenzamide]: the IC50 at AKT2 was in the range of 100 to 2000 nM; on AKT1 E17K, 10 to 100 nM; on AKT1 WT it was 10 to 100 nM; in assay [1], 10 to 100 nM.

As to `Nc1ncccc1-c1nc2ccc(-c3ccccc3)nc2n1-c1ccc2c(c1)CC[C@@H]2NC(=O)c1ccc(O)c(C=O)n1` [Example 89, (S)—N-(5-(2-(2-aminopyridin-3-yl)-5-phenyl-3H-imidazo[4,5-b]pyridin-3-yl)-2,3-dihydro-1H-inden-1-yl)-6-formyl-5-hydroxypicolinamide], the IC50 on AKT2 was in the range of 100 to 2000 nM; at AKT1 E17K it was 100 to 2000 nM; on AKT1 WT it was 10 to 100 nM; in assay [1] it was 100 to 2000 nM.

As to `Cc1csc(-c2ccc3nc(-c4cccnc4N)n(-c4ccc5c(c4)CC[C@@H]5NC(=O)c4ccc(O)c(C=O)c4)c3n2)n1` [Example 133, (S)—N-(5-(2-(2-aminopyridin-3-yl)-5-(4-methylthiazol-2-yl)-3H-imidazo[4,5-b]pyridin-3-yl)-2,3-dihydro-1H-inden-1-yl)-3-formyl-4-hydroxybenzamide], the IC50 on AKT2 is 10 to 100 nM; on AKT1 E17K, less than 10 nM; on AKT1 WT it was less than 10 nM; in assay [1], 10 to 100 nM.

Consider `Nc1ncccc1-c1nc2ccc(-c3nccs3)nc2n1-c1ccc2c(c1)CC[C@@H]2NC(=O)c1cc(C=O)c(O)c(F)c1F` [Example 140, (S)—N-(5-(2-(2-aminopyridin-3-yl)-5-(thiazol-2-yl)-3H-imidazo[4,5-b]pyridin-3-yl)-2,3-dihydro-1H-inden-1-yl)-2,3-difluoro-5-formyl-4-hydroxybenzamide], for which the IC50 was 10 to 100 nM on AKT2, less than 10 nM on AKT1 E17K, less than 10 nM at AKT1 WT and less than 10 nM in assay [1].

Take `COc1cc2nc(-c3cccnc3N)n(-c3ccc4c(c3)CC[C@@H]4NC(=O)c3ccc(O)c(C=O)c3)c2nc1-n1cccn1` [Example 215, N-[(1S)-5-[2-(2-aminopyridin-3-yl)-6-methoxy-5-(pyrazol-1-yl)imidazo[4,5-b]pyridin-3-yl]-2,3-dihydro-1H-inden-1-yl]-3-formyl-4-hydroxybenzamide]: the IC50 on AKT2 was in the range of 100 to 2000 nM; at AKT1 E17K, 10 to 100 nM; on AKT1 WT it was 100 to 2000 nM; in assay [1], 100 to 2000 nM.

On to `[2H]C(=O)c1cc(C(=O)N[C@H]2CCc3cc(-n4c(-c5cccnc5N)nc5c(C)cc(-n6cccn6)nc54)ccc32)ccc1O` [Example 183, (S)—N-(5-(2-(2-aminopyridin-3-yl)-7-methyl-5-(1H-pyrazol-1-yl)-3H-imidazo[4,5-b]pyridin-3-yl)-2,3-dihydro-1H-inden-1-yl)-3-(formyl-d)-4-hydroxybenzamide], for which the IC50 fell in the range of 100 to 2000 nM on AKT2, 10 to 100 nM on AKT1 E17K, 10 to 100 nM at AKT1 WT and 100 to 2000 nM in assay [1].

As to `Cc1cc(C(=O)N[C@H]2CCc3cc(-n4c(-c5cccnc5N)nc5ccc(-c6ccccc6)nc54)ccc32)cc(C=O)c1O` [Example 41, N-[(1S)-5-[2-(2-aminopyridin-3-yl)-5-phenylimidazo[4,5-b]pyridin-3-yl]-2,3-dihydro-1H-inden-1-yl]-3-formyl-4-hydroxy-5-methylbenzamide], the IC50 on AKT2 is not below 2000 nM; on AKT1 E17K, 100 to 2000 nM; at AKT1 WT it was 100 to 2000 nM; in assay [1] it was 100 to 2000 nM.

For the compound `Cc1nc(-c2ccc3nc(-c4cccnc4N)n(-c4ccc5c(c4)CC[C@@H]5NC(=O)c4ccc(O)c(C=O)c4)c3n2)no1` [Example 173, N-[(1S)-5-[2-(2-aminopyridin-3-yl)-5-(5-methyl-1,2,4-oxadiazol-3-yl)imidazo[4,5-b]pyridin-3-yl]-2,3-dihydro-1H-inden-1-yl]-3-formyl-4-hydroxybenzamide], the IC50 lay in the range of 100 to 2000 nM at AKT2, 10 to 100 nM on AKT1 E17K, 10 to 100 nM on AKT1 WT and 100 to 2000 nM in assay [1].

Take `Nc1ncccc1-c1nc2ccc(-n3cccn3)nc2n1-c1ccc2c(c1)CC[C@@H]2NC(=O)c1ccc(O)c(C=O)c1` [Example 33, (S)—N-(5-(2-(2-aminopyridin-3-yl)-5-(1H-pyrazol-1-yl)-3H-imidazo[4,5-b]pyridin-3-yl)-2,3-dihydro-1H-inden-1-yl)-3-formyl-4-hydroxybenzamide]: the IC50 at AKT2 is 100 to 2000 nM; on AKT1 E17K, 10 to 100 nM; at AKT1 WT it was 10 to 100 nM; in assay [1], 10 to 100 nM.

In the case of `Nc1ncccc1-c1nc2ccc(-c3ncco3)nc2n1-c1ccc2c(c1)CC[C@@H]2NC(=O)c1cc(C=O)c(O)cc1F` [Example 151, N-[(1S)-5-[2-(2-aminopyridin-3-yl)-5-(1,3-oxazol-2-yl)imidazo[4,5-b]pyridin-3-yl]-2,3-dihydro-1H-inden-1-yl]-2-fluoro-5-formyl-4-hydroxybenzamide], the IC50 at AKT2 is 100 to 2000 nM; on AKT1 E17K it was less than 10 nM; at AKT1 WT, 10 to 100 nM; in assay [1] it was 10 to 100 nM.
